Measured values reported in patent publication US12441732B2, “Potassium salt crystal form B of phosphodiesterase type 5 inhibitor, and preparation method and use therefor” (Guangzhou Huazhen Pharmaceutical Co., Ltd, priority 2019, dated 2025).

Tested on: PAH rats
Assay: Monocrotaline-induced pulmonary arterial hypertension (PAH) rats: RVSP, RVMI, pulmonary arterioles
Type: in vivo, SD rats
Settings: for RVMI, RV/(LV+S) / RVSP: 3 weeks after MCT
Description: SD rats were randomly divided into 8 groups, 15 rats/group: a normal control group (Vehicle); a PAH model group (MCT); a PAH+potassium salt crystal form B of WYQ mini-dose group (hereafter referring to as a mini-dose group); a PAH+potassium salt crystal form B of WYQ low-dose group (hereafter referring to as a low-dose group); a PAH+potassium salt crystal form B of WYQ medium-dose group (hereafter referring to as a medium-dose group); a PAH+potassium salt crystal form B of WYQ high-dose group (hereafter referring to as a high-dose group); a PAH+Sildenafil control group (hereafter referring to as a Sildenafil group); a PAH+Tadalafil control group (hereafter referring to as a Tadalafil group).
MCT was fully dissolved with 1M dilute HCl, diluted with double-distilled water, and adjusted to pH=7.2 with 3M NaOH, thereby preparing a MCT solution with a final concentration of 20 mg/ml.
The normal control group was injected subperitoneally with normal saline (50 mg/kg), and the rest of the groups were injected subperitoneally with MCT (50 mg/kg) at one time.
Mini-dose group: the potassium salt crystal form B of WYQ was prepared into a 0.4 mg/ml medicinal solution (ready to use) with normal saline, and administered by gavage at the dose of 2 mg·kg^−1d^−1;
Low-dose group: the potassium salt crystal form B of WYQ was prepared into a 1 mg/ml medicinal solution (ready to use) with normal saline, and administered by gavage at the dose of 5 mg·kg^−1d^−1;
Medium-dose group: the potassium salt crystal form B of WYQ was prepared into a 2 mg/ml medicinal solution (ready to use) with normal saline, and administered by gavage at the dose of 10 mg·kg^−1d^−1;
High-dose group: the potassium salt crystal form B of WYQ was prepared into a 4 mg/ml medicinal solution (ready to use) with normal saline, and administered by gavage at the dose of 20 mg·kg^−1d^−1;
Sildenafil group: Sildenafil was prepared into a 5 mg/ml medicinal solution (ready to use) with 0.5% sodium carboxymethyl cellulose, and administered by gavage at the dose of 25 mg·kg^−1d^−1;
Tadalafil group: Tadalafil was prepared into a 2 mg/ml medicinal solution (ready to use) with 0.5% sodium carboxymethyl cellulose, and administered by gavage at the dose of 10 mg·kg^−1d^−1.
The day of injection was the starting date of the experiment, and the administration was started after 7 days of modeling, once a day for 14 consecutive days.
After 3 weeks from the starting date of the experiment, RVSP data were collected on RM-6240E polygraph for each group of rats.
After 3 weeks from the starting date of the experiment, the animals were anesthetized, hemodynamically tested (RM-6240E polygraph), and sacrificed after manometry. The cardiopulmonary tissues were immediately dissected, and the right and left atria and great vessels were cut off along the atrioventricular junction with ophthalmic scissors to separate the right ventricle (RV) and left ventricular wall plus septum (LV+S), which was absorbed water with filter paper and weighed respectively, and RV/(LV+S), i.e., RVMI was calculated.
After 3 weeks from the starting date of the experiment, rats were heparinized with heparin (50 IU/100 g, intraperitoneal injection) for 5 min. The animals were anesthetized by injection of 20% urethane solution (0.5 ml/100 g), and the blood pressure indexes were detected and recorded.
The heart was dissected, the right ventricular wall was separated, and the left ventricle and the septum were separated, which were absorbed water with filter paper and weighed respectively to calculate the right ventricular hypertrophy index.
The lungs were dissected, wherein the right lung was ligated, and the left lung lobe was perfused with a fixative (4% paraformaldehyde) and then fixed in the fixative, dehydrated by ethanol gradient, allowed to become transparent by using xylene, immersed in wax, embedded in paraffin, sectioned (4 μm), stained with hematoxylin-eosin (HE), sealed with neutral gum and then observed under a microscope. […]

[1] = high-dose 20 mg·kg^−1d^−1 gavage once a day for 14 days
[2] = low-, medium- and high-dose groups (5, 10, 20 mg·kg^−1d^−1)
[3] = low-dose 5 mg·kg^−1d^−1 gavage once a day for 14 days
[4] = medium-dose 10 mg·kg^−1d^−1 gavage once a day for 14 days
[5] = mini-dose 2 mg·kg^−1d^−1 gavage once a day for 14 days

## CCCCOC(=O)[N-]S(=O)(=O)c1cccc(-c2nc3c(CCC)nn(C)c3c(=O)[nH]2)c1.[K+] [potassium salt crystal form B]
[1]
  RVMI, RV/(LV+S): 34.6±19%
  RVSP: 29.8±1.6 mmHg
[2]
  WT % of pulmonary arterioles vs PAH model group: decreased and improved significantly
  tunica media thickness of pulmonary arterioles vs PAH model group: decreased and improved significantly
[3]
  RVMI, RV/(LV+S): 40.6±2.7%
  RVSP: 47.6±1.9 mmHg
[4]
  RVMI, RV/(LV+S): 38.7±2.1%
  RVSP: 40.7±1.5 mmHg
[5]
  RVMI, RV/(LV+S): 42.8±2.1%
  RVSP: 56.2±0.5 mmHg
